The test deals with murine Head Twitch Response. The test can be described thus: murine Head Twitch Response (HTR). Conditions: Mus musculus, read-out: HTR ED50.

Molecules are shown by their SMILES.

From patent US12343328B2, “Dialkyl tryptamines and their therapeutic uses” (CAAMTECH, INC., priority 2020, dated 2025) come the findings set out here.

One may read the ED50 as the midpoint of the dose-response relation. In the case of `CN(C)CCc1c[nH]c2cccc(O)c12` [Psilocin], the ED50 was 0.54 µmol/kg.

As for `CN(C)CCc1c[nH]c2cccc(OP(=O)(O)O)c12` [Psilocybin], the ED50 turned out to be 1.02 µmol/kg.
